Common to all, as to format: cell-based
Test [1] relates to human breast cancer cells MCF7. Nature of the test: SRB anti-proliferative assay, MCF-7. The note with it: read-out: Anti-proliferative IC50, MCF-7. As to the method:
(§1) The present example evaluated the anti-tumor activity of the molecules provided by the present invention. The present example mainly used a method with SRB (sulforhodamine B) dying, in which proteins in the cell were stained with SRB dye to determine protein content in the cell so as to characterize cell growth density. Firstly, the test compound was formulated into a stock solution (10 mM), which was stored at 4° C. in a refrigerator. Prior to beginning the assay, the stock solution was diluted with DMSO into a series of different concentrations. The required concentrations were obtained by diluting with complete growth medium. Well growing cells were seeded in a 96-well plate (5000 cells/well, 100 uL) and cultured in an incubator at 37° C., 5% CO2, and 90% RH. 24 h later, the prepared compound solution (100 μL) was slowly added to cell solution in the 96-well plate, and the well with DMSO (final concentration 0.5%) instead of the drug was used as a drug free control. The plate was incubated for 48 h. In addition, a day 0 plate that was drug free was directly detected after cell seeded in the plate for 24 h. The 96-well plate was taken out and added with trichloroacetic acid (50 μL, final concentration 10%). The plate was incubated at 4° C. for 1 h to fix the cells.
(§2) The plate was washed with ultrapure water and air-dried. The plate was then stained with SRB dye (0.4% in 1% acetic acid, 100 μL) for 30 min at room temperature. The plate was then washed with 1% acetic acid and then air-dried. A Tris base solution (100 μL, 10 mM, pH10.4) was added, after which the plate was gently shaken for 1 h on an orbital shaker to ensure that the dyes were completed dissolved. The optical density (OD) was recorded on a TECAN Infinite M200 Pro multimode reader at 515 nm. The cell growth (% of control)=(OD value of wells added with drug−mean OD value of Day 0 plate)/(OD value of DMSO drug-free control well−mean OD value of Day 0 plate)*100.

In test [2] the test system is doxorubicin resistant breast cancer cell MCF-7/DOX. Nature of the test: SRB anti-proliferative assay, drug-resistant MCF-7/DOX. To be noted: Homo sapiens, MCF7-DOX, read-out: Anti-proliferative IC50, MCF-7/DOX. The procedure:
as §1, §2
(§3) We also evaluated the anti-proliferation activities of selected compounds against drug-resistant cancer cell lines.

Test [3] concerns cis-platinum resistant human lung cancer cell A549/CDDP. The test is described as follows: SRB anti-proliferative assay, drug-resistant A549/CDDP. The note with it: read-out: Anti-proliferative IC50, A549/CDDP. The procedure: as §1, §2, §3
Test [4] has as its system human nasopharyngeal carcinoma cells CNE2. The test is described as follows: SRB anti-proliferative assay, CNE2. To be noted: read-out: Anti-proliferative IC50, CNE2. As to the method: as §1, §2
For test [5], the system named is human lung cancer cells A549. Nature of the test: SRB anti-proliferative assay, A549. To be noted: read-out: Anti-proliferative IC50, A549. As to the method:
as §1, §2

Test [6] has as its system incristine resistant human ileocecum carcinoma cell HCT-8/VCT. The test is described as follows: SRB anti-proliferative assay, drug-resistant HCT-8/VCT. The note with it: HCT8/VCT, read-out: Anti-proliferative IC50, HCT-8/VCT. As to the method: as §1, §2, §3
Test [7] deals with human liver cancer cell HepG2. Nature of the test: SRB anti-proliferative assay, HepG2. To be noted: read-out: Anti-proliferative IC50, HepG2. As to the method:
as §1, §2

The test system of test [8] is human colon cancer cells SW480. The test is described as follows: SRB anti-proliferative assay, SW480. The note with it: read-out: Anti-proliferative IC50, SW480. As to the method: as §1, §2
In test [9] the test system is human colon cancer cells HCT8. Nature of the test: SRB anti-proliferative assay, HCT-8. To be noted: read-out: Anti-proliferative IC50, HCT-8. The procedure:
as §1, §2

Test [10] concerns Paclitaxel-resistant human ovarian carcinoma cell A2780/TAX. The test is described as follows: SRB anti-proliferative assay, drug-resistant A2780/TAX. The note with it: read-out: Anti-proliferative IC50, A2780/TAX. As to the method: as §1, §2, §3
Test [11] relates to human ovary cancer cells A2780. The test is described as follows: SRB anti-proliferative assay, A2780. To be noted: read-out: Anti-proliferative IC50, A2780. As to the method:
as §1, §2

Where [12] appears, read: doxorubicin resistant MCF-7/DOX, SRB.
The mark [13] stands for this setting: cis-platinum resistant A549/CDDP, SRB.
[14] abbreviates: vincristine-resistant HCT-8/VCT, SRB.
Where [15] appears, read: paclitaxel-resistant A2780/TAX, SRB.

Where two headings read alike, the source gives them in different places.

For `COc1cccc2c1C(=O)c1c(O)c3c(c(O)c1C2=O)C[C@@](O)(C(=O)CO)C[C@@H]3O[C@H]1C[C@H](N)[C@H](O)[C@H](C)O1` [DOX, doxorubicin, reference compound], the IC50 in [1] (MCF7, MCF-7, SRB, 48 h) came to 138 nM; in [2] (setting [12]), 14600 nM; in [3] (setting [13]), 290 nM; in test [4] (CNE-2, CNE2, SRB, 48 h) it was 75 nM; in [5] (A549, SRB, 48 h), 291 nM; in test [6] (setting [14]), 3420 nM. The IC50 in [7] (HepG2, SRB, 48 h) was 170 nM; in [8] (SW480, SRB, 48 h), 98 nM; in test [9] (HCT-8, SRB, 48 h), 165 nM; in test [10] (setting [15]) it was 1940 nM; in test [11] (A2780, SRB, 48 h), 83 nM.
Consider `CC(=O)O[C@H]1C(=O)[C@@]2(C)[C@H]([C@H](OC(=O)c3ccccc3)[C@]3(O)C[C@H](OC(=O)[C@H](O)[C@@H](NC(=O)c4ccccc4)c4ccccc4)C(C)=C1C3(C)C)[C@]1(OC(C)=O)CO[C@@H]1C[C@@H]2O` [TAX, paclitaxel, reference compound], for which the IC50 in [3] (setting [13]) came out at 9 nM; in test [6] (setting [14]), 2600 nM.
`CC[C@]1(O)C[C@H]2CN(CCc3c([nH]c4ccccc34)[C@@](C(=O)OC)(c3cc4c(cc3OC)N(C=O)[C@H]3[C@@](O)(C(=O)OC)[C@H](OC(C)=O)[C@]5(CC)C=CCN6CC[C@]43[C@@H]65)C2)C1` [VCT, vincristine, reference compound]: the IC50 in [2] (setting [12]) came out at 4250 nM; in test [3] (setting [13]) it was 56 nM; in test [6] (setting [14]), 1920 nM; in test [10] (setting [15]) it was 927 nM.
For `COc1ccc(/C=C/C(=O)c2ccccc2-c2cccc(F)c2)cc1B(O)O` [compound 6, (E)-(5-(3-(3′-Fluoro[1,1′-biphenyl]-2-yl)-3-oxoprop-1-en-1-yl)-2-methoxyphenyl)boronic Acid], the IC50 in [1] (MCF7, MCF-7, SRB, 48 h) came to 83 nM; in [2] (setting [12]), 74 nM; in test [3] (setting [13]), 63 nM; in test [4] (CNE-2, CNE2, SRB, 48 h), 55 nM; in test [5] (A549, SRB, 48 h), 59 nM; in [6] (setting [14]), 78 nM. Besides, the IC50 in test [7] (HepG2, SRB, 48 h) was 37 nM; in test [8] (SW480, SRB, 48 h), 55 nM; in [9] (HCT-8, SRB, 48 h), 54 nM; in [10] (setting [15]), 124 nM; in test [11] (A2780, SRB, 48 h), 62 nM.
With `CN(C)c1ccc(/C=C/C(=O)c2ccccc2-c2cccc(F)c2)cc1` [compound 7, (E)-3-(4-(Dimethylamino)phenyl)-1-(3′-fluoro[1,1′-biphenyl]-2-yl)prop-2-en-1-one], the IC50 in test [1] (MCF7, MCF-7, SRB, 48 h) was 48 nM; in test [2] (setting [12]), 32 nM; in test [3] (setting [13]), 68 nM; in test [4] (CNE-2, CNE2, SRB, 48 h), 25 nM; in test [5] (A549, SRB, 48 h), 48 nM; in test [6] (setting [14]) it was 86 nM. Besides, the IC50 in test [7] (HepG2, SRB, 48 h) was 37 nM; in test [8] (SW480, SRB, 48 h), 44 nM; in test [9] (HCT-8, SRB, 48 h) it was 92 nM; in test [10] (setting [15]), 55 nM; in test [11] (A2780, SRB, 48 h) it was 73 nM.
Consider `COc1ccc(/C=C/C(=O)c2ccccc2-c2ccc(OC)c(OC)c2OC)cc1B(O)O` [compound 8], for which the IC50 was 114 nM in test [1] (MCF7, MCF-7, SRB, 48 h); 75 nM in test [2] (setting [12]); 247 nM in test [3] (setting [13]); 86 nM in [4] (CNE-2, CNE2, SRB, 48 h); 64 nM in test [5] (A549, SRB, 48 h); 156 nM in test [6] (setting [14]). For the same compound, the IC50 was 78 nM in [7] (HepG2, SRB, 48 h); 74 nM in test [8] (SW480, SRB, 48 h); 118 nM in test [9] (HCT-8, SRB, 48 h); 234 nM in [10] (setting [15]); 98 nM in [11] (A2780, SRB, 48 h).
With `COc1ccc(-c2ccccc2C(=O)/C=C/c2ccc(N(C)C)cc2)c(OC)c1OC` [compound 9, (E)-1-(2′,3′,4′-trimethoxy[1,1′-biphenyl]-2-yl)-3-(4-(Dimethylamino)phenyl)prop-2-en-1-one], the IC50 was 124 nM in test [1] (MCF7, MCF-7, SRB, 48 h); 53 nM in test [2] (setting [12]); 401 nM in test [3] (setting [13]); 53 nM in test [4] (CNE-2, CNE2, SRB, 48 h); 85 nM in [5] (A549, SRB, 48 h); 169 nM in test [6] (setting [14]). The IC50 in test [7] (HepG2, SRB, 48 h) is 72 nM; in [8] (SW480, SRB, 48 h) it was 37 nM; in [9] (HCT-8, SRB, 48 h) it was 153 nM; in [10] (setting [15]), 156 nM; in test [11] (A2780, SRB, 48 h), 117 nM.
Regarding `COc1ccc(/C=C/C(=O)c2ccccc2-c2cccc(F)c2)cc1OP(=O)(O)O` [compound 10, (E)-(5-(3-(3′-Fluoro[1,1′-biphenyl]-2-yl)-3-oxoprop-1-en-1-yl)-2-Methoxyphenol) phosphate ester], the IC50 in [1] (MCF7, 48 h) came out at 51 nM; in test [2] it was 10 nM; in test [3] (A549/CDDP) it was 102 nM; in test [4] (CNE-2, 48 h), 30 nM; in test [5] (A549, 48 h), 10 nM; in test [6] it was 115 nM. Also, the IC50 in test [7] (HepG2, 48 h) was determined as 10 nM; in test [8] (SW480, 48 h), 9 nM; in test [9] (HCT-8, 48 h), 61 nM; in test [10] (A2780/TAX) it was 92 nM; in test [11] (A2780, 48 h) it was 59 nM.
As for `COc1ccc(/C=C/C(=O)c2ccccc2-c2ccc(F)cc2)cc1OP(=O)(O)O` [compound 11, (E)-(5-(3-(4′-Fluoro[1,1′-biphenyl]-2-yl)-3-oxoprop-1-en-1-yl)-2-Methoxyphenol) phosphate ester], the IC50 in test [1] (MCF7, 48 h) came out at 96 nM; in test [2], 26 nM; in test [3] (A549/CDDP) it was 301 nM; in [4] (CNE-2, 48 h), 52 nM; in test [5] (A549, 48 h), 23 nM; in test [6] it was 263 nM. The IC50 was 39 nM in [7] (HepG2, 48 h); 22 nM in [8] (SW480, 48 h); 88 nM in [9] (HCT-8, 48 h); 125 nM in test [10] (A2780/TAX); 65 nM in [11] (A2780, 48 h).
On to `O=C(/C=C/c1cccc(O)c1)c1ccccc1-c1cccc(F)c1` [compound 12, (E)-1-(3′-Fluoro[1,1′-biphenyl]-2-yl)-3-(3-hydroxy)prop-2-en-1-one], for which the IC50 was determined as 87 nM in [1] (MCF7, MCF-7, SRB, 48 h); 26 nM in test [2] (setting [12]); 317 nM in test [3] (setting [13]); 55 nM in test [4] (CNE-2, CNE2, SRB, 48 h); 44 nM in [5] (A549, SRB, 48 h); 117 nM in [6] (setting [14]). Further, the IC50 in test [7] (HepG2, SRB, 48 h) turned out to be 44 nM; in test [8] (SW480, SRB, 48 h), 48 nM; in [9] (HCT-8, SRB, 48 h), 36 nM; in [10] (setting [15]), 130 nM; in test [11] (A2780, SRB, 48 h), 39 nM.
As for `CN(C)c1ccc(/C=C/C(=O)c2ccccc2-c2cccc(F)c2)cc1O` [compound 13, (E)-1-(3′-Fluoro[1,1′-biphenyl]-2-yl)-3-(3-hydroxy-4-(Dimethylamino)phenyl)prop-2-en-1-one], the IC50 in test [1] (MCF7, MCF-7, SRB, 48 h) stood at 69 nM; in test [2] (setting [12]), 5 nM; in [3] (setting [13]) it was 69 nM; in test [4] (CNE-2, CNE2, SRB, 48 h), 15 nM; in [5] (A549, SRB, 48 h), 11 nM; in test [6] (setting [14]), 37 nM. Moreover, the IC50 in test [7] (HepG2, SRB, 48 h) stood at 9 nM; in test [8] (SW480, SRB, 48 h), 6 nM; in [9] (HCT-8, SRB, 48 h) it was 14 nM; in test [10] (setting [15]) it was 43 nM; in test [11] (A2780, SRB, 48 h) it was 10 nM.
